From patent US7446094B2, “Cytotoxic depsipeptides” (Instituto Biomar S.A., priority 2003, dated 2008)

Assays:
[1] = test system: human non-small cell lung tumour (LX-1 cell line) xenografts; test: Human non-small cell lung tumour xenograft, net tumour growth; type: in vivo, female athymic mice; details: for Net Tumour Growth ± S.E.M.: LX-1 xenograft
Excerpt: (§1) At different times, three human tumour cell lines MX-1 (breast), HT-29 (colon), and LX-1 (non-small cell lung), respectively, were implanted subcutaneously into separate groups of recipient female athymic mice as a small seedling of approximately 2-3 mm^3. Each tumour type was then allowed to grow inside the animal to reach a group mean size of 100±15 mm^3, at which time tumour-bearing mice were randomized into groups (Staging Day). The Staging Day also coincided with Day 0 for drug dosing.
(§2) The test article was administered as a single intravenous (iv) bolus injection (i.e., QD×1) on the Staging Day (Day 0).
(§3) Tumour burden was determined for all animals throughout the study using a caliper, and the frequency was at least twice per week.
(§4) Protocols and criteria for drug activity were derived from those established by the National Cancer Institute for tumour systems similar to those used in these studies (NIH Publication No. 84-2635, In vivo cancer models 1976-1982). Statistical analysis of tumour volumes for each group of drug treated animals was performed according to the Mann Whitney nonparametric test based on comparisons to the vehicle control cohort within the same experiment.
(§5) Tumour lengths (L) and widths (W) were measured in millimeters (mm) using calipers, recorded, and tumour volume was calculated by the formula: Volume (mm^3)=L×W^2×0.5. Individual values were determined for each tumour-bearing athymic- mouse and specified day of measurement (day D). On the tumour Staging Day (Day 0), the tumour volume of a treated animal (T01) was subtracted from the corresponding tumour volume on each observation day (TD1). This provided the change (Δ) in tumour volume for the said treated athymic mouse (ΔT1=TD1−T01). The change in tumour volumes for each member of the control cohort (ΔC) was calculated in a similar fashion as above.
(§6) At randomization (Day 0) the average volume of the tumour mass was 100±15 mm^3 and the “net tumour growth” is really a difference between the size of the tumour on Day X and that on Day 0. The parameter S.E.M. is commonly used in statistics and stands for standard error of the mean in a distribution of N (size) experimental values.

SW 694 = test: MTS tetrazolium cytotoxicity assay; type: cell-based; details: Homo sapiens, 72 h, read-out: Cytotoxic activity (IC50)
Excerpt: (§7) The finality of these assays is to interrupt the growth of an “in vitro” tumour cell culture by means a continued exhibition of the cells to the sample to be testing. The following human cell lines were used:
(§8) Tetrazolium Assay MTS is based on metabolic reduction of MTS to solubilized formazan crystals by the metabolically active mitochondria of living cells. For this reason, the methodology includes counting of the cell lines based on viability staining to ensure that cell concentrations are corrected to allow for 100% living cells into each well in lieu of Coulter counting or estimated dilutions based on standard growth curves.
(§9) Medium containing drug was removed at the end of the treatment and culture plates rinsed one time with PBS. Afterward, cells were incubated in 200 μl of drug-free medium until 72 hours. After appropriate incubation time 25 μl of MTS+PMS solution was added to each microtiter well and incubated for 4 hours at 37° C. Plates were then removed from the incubator and placed on plate shaker for 5 minutes (covered for protection from light). Optical densities were read at 490 nm on spectrophotometer plate reader. Data was analyzed using Softmax.
(§10) Data is presented as IC50 potencies calculated from 3rd order polynomial regression curves using Microsoft Excel and then manually interpolated.

MC116 = test: MTS tetrazolium cytotoxicity assay; type: cell-based; details: Homo sapiens, MC116, 72 h, read-out: Cytotoxic activity (IC50)
Excerpt: as §7, §8, §9, §10

LNCAP = test: MTS tetrazolium cytotoxicity assay; type: cell-based; details: Homo sapiens, 72 h, read-out: Cytotoxic activity (IC50)
Excerpt: as §7, §8, §9, §10

NCI-H187 = test: MTS tetrazolium cytotoxicity assay; type: cell-based; details: Homo sapiens, NCI-H187, 72 h, read-out: Cytotoxic activity (IC50)
Excerpt: as §7, §8, §9, §10

SK-N-MC = test: MTS tetrazolium cytotoxicity assay; type: cell-based; details: Homo sapiens, 72 h, read-out: Cytotoxic activity (IC50)
Excerpt: as §7, §8, §9, §10

FADU = test: MTS tetrazolium cytotoxicity assay; type: cell-based; details: Homo sapiens, 72 h, read-out: Cytotoxic activity (IC50)
Excerpt: as §7, §8, §9, §10

786-O = test: MTS tetrazolium cytotoxicity assay; type: cell-based; details: Homo sapiens, 786-0, 72 h, read-out: Cytotoxic activity (IC50)
Excerpt: as §7, §8, §9, §10

Y-79 = test: MTS tetrazolium cytotoxicity assay; type: cell-based; details: Homo sapiens, Y79, 72 h, read-out: Cytotoxic activity (IC50)
Excerpt: as §7, §8, §9, §10

BT-474 = test: MTS tetrazolium cytotoxicity assay; type: cell-based; details: Homo sapiens, BT-474, 72 h, read-out: Cytotoxic activity (IC50)
Excerpt: as §7, §8, §9, §10

CHSA = test: MTS tetrazolium cytotoxicity assay; type: cell-based; details: Homo sapiens, 72 h, read-out: Cytotoxic activity (IC50)
Excerpt: as §7, §8, §9, §10

SK-OV-3 = test: MTS tetrazolium cytotoxicity assay; type: cell-based; details: Homo sapiens, SK-OV-3, 72 h, read-out: Cytotoxic activity (IC50)
Excerpt: as §7, §8, §9, §10

K562 = test: MTS tetrazolium cytotoxicity assay; type: cell-based; details: Homo sapiens, K562, 72 h, read-out: Cytotoxic activity (IC50)
Excerpt: as §7, §8, §9, §10

MX-1 = test: MTS tetrazolium cytotoxicity assay; type: cell-based; details: Homo sapiens, MX1, 72 h, read-out: Cytotoxic activity (IC50)
Excerpt: as §7, §8, §9, §10

A549 = test: MTS tetrazolium cytotoxicity assay; type: cell-based; details: Homo sapiens, A549, 72 h, read-out: Cytotoxic activity (IC50)
Excerpt: as §7, §8, §9, §10

HL-60 = test: MTS tetrazolium cytotoxicity assay; type: cell-based; details: Homo sapiens, HL-60, 72 h, read-out: Cytotoxic activity (IC50)
Excerpt: as §7, §8, §9, §10

Mel-28 = test: MTS tetrazolium cytotoxicity assay; type: cell-based; details: Homo sapiens, SK-MEL-28, 72 h, read-out: Cytotoxic activity (IC50)
Excerpt: as §7, §8, §9, §10

OSA-FH = test: MTS tetrazolium cytotoxicity assay; type: cell-based; details: Homo sapiens, 72 h, read-out: Cytotoxic activity (IC50)
Excerpt: as §7, §8, §9, §10

PANC-1 = test: MTS tetrazolium cytotoxicity assay; type: cell-based; details: Homo sapiens, PANC-1, 72 h, read-out: Cytotoxic activity (IC50)
Excerpt: as §7, §8, §9, §10

H9 = test: MTS tetrazolium cytotoxicity assay; type: cell-based; details: Homo sapiens, H9, 72 h, read-out: Cytotoxic activity (IC50)
Excerpt: as §7, §8, §9, §10

PC-3 = test: MTS tetrazolium cytotoxicity assay; type: cell-based; details: Homo sapiens, PC-3, 72 h, read-out: Cytotoxic activity (IC50)
Excerpt: as §7, §8, §9, §10

5637 = test: MTS tetrazolium cytotoxicity assay; type: cell-based; details: Homo sapiens, 72 h, read-out: Cytotoxic activity (IC50)
Excerpt: as §7, §8, §9, §10

SK-HEP-1 = test: MTS tetrazolium cytotoxicity assay; type: cell-based; details: Homo sapiens, SK-HEP1, 72 h, read-out: Cytotoxic activity (IC50)
Excerpt: as §7, §8, §9, §10

Hs746t = test: MTS tetrazolium cytotoxicity assay; type: cell-based; details: Homo sapiens, 72 h, read-out: Cytotoxic activity (IC50)
Excerpt: as §7, §8, §9, §10

DU-145 = test: MTS tetrazolium cytotoxicity assay; type: cell-based; details: Homo sapiens, DU-145, 72 h, read-out: Cytotoxic activity (IC50)
Excerpt: as §7, §8, §9, §10

TT = test: MTS tetrazolium cytotoxicity assay; type: cell-based; details: Homo sapiens, 72 h, read-out: Cytotoxic activity (IC50)
Excerpt: as §7, §8, §9, §10

SW-579 = test: MTS tetrazolium cytotoxicity assay; type: cell-based; details: Homo sapiens, SW579, 72 h, read-out: Cytotoxic activity (IC50)
Excerpt: as §7, §8, §9, §10

HT-29 = test: MTS tetrazolium cytotoxicity assay; type: cell-based; details: Homo sapiens, HT-29, 72 h, read-out: Cytotoxic activity (IC50)
Excerpt: as §7, §8, §9, §10

[2] = test system: human breast tumour (MX-1 cell line) xenografts; test: Human breast tumour xenograft, net tumour growth; type: in vivo, female athymic mice; set-up: key to Net Tumour Growth ± S.E.M.: †: High mortality prevented meaningful statistical analysis; details: for Net Tumour Growth ± S.E.M.: MX-1 xenograft
Excerpt: as §1, §2, §3, §4, §5, §6

[3] = test system: human colon tumour (HT-29 cell line) xenografts; test: Human colon tumour xenograft, net tumour growth; type: in vivo, female athymic mice; details: for Net Tumour Growth ± S.E.M.: HT-29 xenograft, single iv dose 0.5 mg/kg
Excerpt: as §1, §2, §3, §4, §5, §6

[4] = Maximum tolerated dose in mice; details: CD-1, mouse, in vivo
Hela S3 cells = details: from JP 11180997; cited from earlier work
[5] = single iv dose 1.0 mg/kg, DAY 3
[6] = single iv dose 1.0 mg/kg, DAY 6
[7] = single iv dose 1.0 mg/kg, DAY 10
[8] = single iv dose 1.5 mg/kg, DAY 3
[9] = single iv dose 1.5 mg/kg, DAY 6
[10] = single iv dose 1.5 mg/kg, DAY 10

C=C1NC(=O)C(C(C)C)NC(=O)C(C(C)CC)NC(=O)c2nc(oc2-c2ccccc2)-c2coc(n2)-c2csc(n2)-c2coc(n2)-c2coc1n2 (centres unmarked) [IB-01211]
Net Tumour Growth ± S.E.M. [1, 5]: 68 ± 29 mm^3 | Net Tumour Growth ± S.E.M. [1, 6]: 234 ± 11 mm^3 | Net Tumour Growth ± S.E.M. [1, 7]: 561 ± 60 mm^3 | Net Tumour Growth ± S.E.M. [1, 8]: 11 ± 19 mm^3 | Net Tumour Growth ± S.E.M. [1, 9]: 121 ± 51 mm^3 | Net Tumour Growth ± S.E.M. [1, 10]: 309 ± 71 mm^3 | antitumour effect in vivo ([1]; human non-small cell lung tumour, dose of 0.43 MTD): significant antitumour effect | IC50 (SW 694): 720 nM | IC50 (MC116): 3390 nM | IC50 (LNCAP): 650 nM | IC50 (NCI-H187): 29.7 nM | IC50 (SK-N-MC): 537 nM | IC50 (FADU): 664 nM | IC50 (786-O): 692 nM | IC50 (Y-79): 93.2 nM | IC50 (BT-474): 537 nM | IC50 (CHSA): 353 nM | IC50 (SK-OV-3): 946 nM | IC50 (K562): 636 nM | IC50 (MX-1): 862 nM | IC50 (A549): 918 nM | IC50 (HL-60): 141 nM | IC50 (Mel-28): 508 nM | IC50 (OSA-FH): 720 nM | IC50 (PANC-1): 424 nM | IC50 (H9): 184 nM | IC50 (PC-3): 621 nM | IC50 5637: 339 nM | IC50 (SK-HEP-1): 664 nM | IC50 (Hs746t): 692 nM | IC50 (DU-145): 480 nM | IC50 (TT): 4380 nM | IC50 (SW-579): 452 nM | IC50 (HT-29): 817 nM | Net Tumour Growth ± S.E.M. [2, 5]: 5 ± 3 mm^3 | Net Tumour Growth ± S.E.M. [2, 6]: 113 ± 62 mm^3 | Net Tumour Growth ± S.E.M. [2, 7]: 450 ± 137 mm^3 | Net Tumour Growth ± S.E.M. [2, 8]: † | Net Tumour Growth ± S.E.M. [2, 9]: † | Net Tumour Growth ± S.E.M. [2, 10]: † | antitumour effect in vivo ([2]; breast tumour, dose of 0.29 MTD): trend to significance | Net Tumour Growth ± S.E.M. ([3]; DAY 1): 26 ± 11 mm^3 | Net Tumour Growth ± S.E.M. ([3]; DAY 4): 53 ± 28 mm^3 | Net Tumour Growth ± S.E.M. ([3]; DAY 8): 162 ± 34 mm^3 | antitumour effect in vivo ([3]; colon tumour, dose of 0.14 MTD): not against colon tumour | MTD [4]: 3.5 mg/kg

CCC(C)C1NC(=O)c2nc(oc2-c2ccccc2)-c2csc(n2)-c2coc(n2)-c2coc(n2)-c2coc(n2)CNC(=O)C(C(C)C)NC1=O (centres unmarked)
IC50 (Hela S3 cells): 14 nM
